Read-outs that look alike come from different tables or passages of the source.
Legend:
[1] = rcm bond, Hoveyda-Grubbs 2nd generation
[2] = rcm bond, 14-membered ring
[3] = from (1R,2)-1-{[(1R,2R,4R)-2-(N′-tert-Butoxycarbonyl-N-hept-6-enyl-hydrazinocarbonyl)-4-(7-methoxy-2-phenyl-quinolin-4-yloxy)-cyclopentanecarbonyl]-amino}-2-vinyl-cyclopropanecarboxylic acid ethyl ester; rcm bond; 15-membered ring; Hoveyda-Grubbs II; DCM; 7.0 mM

With `CCOC(=O)[C@@]12C[C@H]1C=CCCCCN(C)C(=O)[C@@H]1C[C@H](Oc3cc(-c4ccccc4)nc4cc(OC)ccc34)C[C@H]1C(=O)N2` the ring closure, yield of all isomers ([1]; from C=CCCCCN(C)C(=O)[C@@H]1C[C@H](Oc2cc(-c3ccccc3)nc3cc(OC)ccc23)C[C@H]1C(=O)N[C@]1(C(=O)OCC)C[C@H]1C=C, DCE, 2.02 mM, 83.0 °C) was 37%.

With `CCOC(=O)C12CC1C=CCCCCNC(=O)C1CC(Oc3cc(-c4ccccc4)nc4cc(OC)ccc34)CC1C(=O)N2` (centres unmarked) the ring closure, isolated yield ([2]; from 1-{[2-Hex-5-enylcarbamoyl-4-(7-methoxy-2-phenyl-quinolin-4-yloxy)-cyclopentanecarbonyl]-amino}-2-vinyl-cycloprpanecarboxylic acid ethyl ester, Hoveyda-Grubbs II, DCM, 5.8 mM) was 32%.

`CN1CCCCC=CC2CC2(C(=O)NS(=O)(=O)C2CC2)NC(=O)C2CC(O)CC2C1=O` (centres unmarked) gave a ring closure, isolated yield ([2]; from 4-Hydroxycyclopentane-1,2-dicarboxylic acid 1-[(1-cyclopropanesulphonylaminocarbonyl-2-vinylcyclopropyl)-amide] 2-(hex-5-enyl-methylamide), Hoveyda-Grubbs II, 1,2-dichloroethane, 5.4 mM, 160.0 °C) of 26%.

Work on `CCOC(=O)[C@@]12C[C@H]1C=CCCCCNC(=O)[C@@H]1C[C@H](Oc3cc(-c4ccccc4)nc4cc(OC)ccc34)C[C@H]1C(=O)N2` yielded a ring closure, yield of all isomers ([1]; from C=CCCCCNC(=O)[C@@H]1C[C@H](Oc2cc(-c3ccccc3)nc3cc(OC)ccc23)C[C@H]1C(=O)N[C@]1(C(=O)OCC)C[C@H]1C=C, DCM, 5.8 mM, 40.0 °C) of 32%.

For `CCOC(=O)C12CC1C=CCCCCN(C)C(=O)C1CC(OS(=O)(=O)c3ccc(Br)cc3)CC1C(=O)N2` (centres unmarked), the ring closure, isolated yield ([2]; from 1-{(4-(4-Bromo-benzensulphonyloxy-2-(hex-5-enyl-methyl-carbamoyl)-cyclopentanecarbonyl-amino}2-vinyl-cyclopropanecarboxylic add ethyl ester)), Hoveyda-Grubbs I, DCM, 4.2 mM) was 60%.

In the case of `CCOC(=O)C12CC1C=CCCCCNC(=O)C1CC(Oc3cc(-c4ccccc4)nc4cc(OC)ccc34)CC1C(=O)N2C` (centres unmarked), the ring closure, isolated yield ([2]; from 1-{[2-Hex-5-enyl-methyl-carbamoyl)-4-(7-methoxy-2-phenyl-quinolin-4-yloxy)-cyclopentanecarbonyl]-amino-2-vinyl-cyclopropanecarboxylic add ethyl ester, Hoveyda-Grubbs II, dichloroethane, 2.02 mM) is reported as 37%.

In the case of `CCOC(=O)[C@@]12C[C@H]1/C=C\CCCCCN(NC(=O)OC(C)(C)C)C(=O)[C@@H]1C[C@H](Oc3cc(-c4ccccc4)nc4cc(OC)ccc34)C[C@H]1C(=O)N2`, the ring closure, yield of all isomers ([1]; from C=CCCCCCN(NC(=O)OC(C)(C)C)C(=O)[C@@H]1C[C@H](Oc2cc(-c3ccccc3)nc3cc(OC)ccc23)C[C@H]1C(=O)N[C@]1(C(=O)OCC)C[C@H]1C=C, DCM, 6.97 mM, 40.0 °C, 16.0 h) is reported as 70% and the ring closure, yield after HPLC [3] is reported as 70%.
